Measurements reported in US20190280220A1, “METAL COMPLEXES” (Merck Patent GmbH, priority 2016, published 2019).

Assay: Comparison of solubility in organic solvents at room temperature
Format: physicochemical
Description: The compounds of the invention have very good solubility in nonpolar solvents (aromatics, alkylaromatics, cyclohexane) and dipolar aprotic solvents (ketones, ethers, esters, amides, sulfones, sulfoxides etc., such as acetone, butanone, cyclohexanone, di-n-butyl ether, THF, dioxane, 3-phenoxytoluene, anisole, ethyl acetate, butyl acetate, hexyl acetate, methyl benzoate, DMF, DMAC, NMP, DMSO, dimethyl sulfone, sulfolane, etc.) and mixtures thereof, and form solutions that are stable for a long period of time. Preferred concentrations are 5-500 mg/ml, more preferably 20-200 mg/ml.

Row | Compound | Solubility, 3-Phenoxytoluene | Solubility, DMF | Solubility, Cyclohexane | Solubility, n-Butyl benzoate | Solubility, Toluene
1 | c1ccc(-c2c(-c3ccccc3)c(-c3ccccc3)c(-c3cc[c]([Ir]([c]4ccc(-c5c(-c6ccccc6)c(-c6ccccc6)c(-c6ccccc6)c(-c6ccccc6)c5-c5ccccc5)cc4-c4ccccn4)[c]4ccc(-c5c(-c6ccccc6)c(-c6ccccc6)c(-c6ccccc6)c(-c6ccccc6)c5-c5ccccc5)cc4-c4ccccn4)c(-c4ccccn4)c3)c(-c3ccccc3)c2-c2ccccc2)cc1 [Ir(500)] | >150 mg/mL | >70 mg/mL | >5 mg/mL | >80 mg/mL | >100 mg/mL
2 | c1ccc(-c2c(-c3ccccc3)c(-c3ccccc3)c(-c3ccc(-c4cc(-c5ccccn5)[c]5cc4-c4ccccc4-c4cc6cc(c4)-c4ccccc4-c4c[c](c(-c7ccccn7)cc4-c4ccc(-c7c(-c8ccccc8)c(-c8ccccc8)c(-c8ccccc8)c(-c8ccccc8)c7-c7ccccc7)cc4)[Ir]5[c]4cc(c(-c5ccc(-c7c(-c8ccccc8)c(-c8ccccc8)c(-c8ccccc8)c(-c8ccccc8)c7-c7ccccc7)cc5)cc4-c4ccccn4)-c4ccccc4-6)cc3)c(-c3ccccc3)c2-c2ccccc2)cc1 [Ir(530)] | >150 mg/mL | >70 mg/mL | >5 mg/mL | >80 mg/mL | >100 mg/mL
